Measurements published in patent US20260345647A1, “AST-3424 COMBINATION FOR TREATING LEUKEMIA AND LYMPHOMA” (ASCENTAWITS PHARMACEUTICALS, LTD., priority 2022, published 2026).
Entries after “also recorded” stand apart in the source; their conditions may differ. Structures can show the parent of a compound that is named as a salt. Where two headings read alike, the source gives them in different places. Each block holds one molecule with its values, some of them ahead of it.

Experiments:
TGF-β signaling pathway = details: cited from earlier work
HepG2 = details: HepG2, high AKR1C3 expression; cited from earlier work
Jurkat, Clone E6-1 cells [1] = assay: In vitro cell proliferation assay, monotherapy (CellTiter-Glo); format: cell-based; details: Homo sapiens
Experimental: (§1) On day 1, cells were seeded in 96-well cell culture plates (at 180 μL/well).
(§2) On day 2, 20 μL of a 10-fold test concentration of the working solution of the compound (AST-3424) was added. The cell plates were gently agitated, and were then placed in an incubator at 37 °C for further culture.
(§3) On day 3, 20 μL of a 10-fold test concentration of the solution of the compound (cytarabine and daunorubicin) was added. The cell plates were gently agitated, and were then placed in an incubator at 37 °C for further 72 hours.
(§4) After incubation, to the cell plates was added a reagent prepared according to the Protocol for a […] CellTiter-Glo Reagent (50 μL/well). The plates were thoroughly agitated and were then incubated at room temperature in the dark for 10 minutes.
(§5) The cell plates were placed in a plate reader for analysis to detect chemiluminescence and record the data.
(§6) The readings in each well should be converted into cell viability, which was calculated by the following formula:
(§7) • 1. MOLT-4 and MOLT-3 were derived from a patient with acute lymphoblastic leukemia in relapse who had previously received polydrug combination chemotherapy. The MOLT-4 cell line was originated from T lymphocytes, wherein there is a G→A mutation in Codon 248 of the p53 gene with no expression of p53, immunoglobulin or Epstein-Barr virus, resulting in high levels of terminal deoxyribosyl transferase, and expression of CD1 (49%), CD2 (35%), CD3 A (26%) B (33%) C (34%), CD4 (55%), CD5 (72%), CD6 (22%), and CD7 (77%). The cell is a human acute lymphoblastic leukemia cell, and the corresponding disease is human T-cell acute lymphoblastic leukemia, or T-ALL. • 2. PF-382 is a human T-cell acute lymphoblastic leukemia cell, and the corresponding disease is human T-cell acute lymphoblastic leukemia, or T-ALL. • 3. Jurkat, Clone E6-1 is a clone of the Jurkat-FHCRC cell line, a derivative of the Jurkat cell line, which was established from the peripheral blood of a patient suffering from T-cell acute leukemia. It is a human T lymphocytic leukemia cell, and the corresponding disease is T-ALL. • 4. SUP-T1 is a human T lymphoblastoma cell, and the corresponding disease is T-cell Lymphoblastic Lymphoma (T-LBL). • 5. CCRF-CEM is a human acute lymphoblastic leukemia, T lymphocyte serum culture cell, which was obtained in November 1964 from the peripheral blood leukocytes of a patient suffering from acute lymphoblastic leukemia. The cell is a human T-cell acute lymphoblastic leukemia cell, and the corresponding disease is T-cell acute lymphoblastic leukemia, or T-ALL.

MOLT-4 cells [2] = assay: as above; format: cell-based; details: Homo sapiens
Experimental: as §1, §2, §3, §4, §5, §6, §7

SUP-T1 cells [3] = assay: as above; format: cell-based; details: Homo sapiens
Experimental: as §1, §2, §3, §4, §5, §6, §7

PF-382 cells [4] = assay: as above; format: cell-based; details: Homo sapiens
Experimental: as §1, §2, §3, §4, §5, §6, §7

CCRF-CEM cells [5] = assay: as above; format: cell-based; details: Homo sapiens
Experimental: as §1, §2, §3, §4, §5, §6, §7

PLC/PRF/5 = details: PLC/PRF/5, high AKR1C3 expression; cited from earlier work
tumor cells = details: Transwell; MMP-9; cited from earlier work
liver cancer cells [6] = details: flow cytometry; cited from earlier work
cancer cells = details: cited from earlier work
liver cancer cells [7] = details: flow cytometry; Bax, Caspase3, PARP; cited from earlier work
[8] = test system: five cell lines including CCRF-CEM, PF-382, Jurkat, Clone E6-1, SUP-T1, and MOLT-4; assay: In vitro cell proliferation assay, monotherapy, summary over five cell lines; format: cell-based, human; details: for inhibitory effects on cell proliferation: monotherapy, five cell lines
Experimental: as §1, §2, §3, §4, §5, §6, §7

Jurkat, Clone E6-1 cells [9] = assay: In vitro cell proliferation assay, combination therapy (CellTiter-Glo); format: cell-based, human; details: 0.64 nM and 16 nM AST-3424
Experimental: as §1
(§8) On day 2, 10 μL of a 20-fold test concentration of the AST-3424 solution (20-fold concentration of either of the two concentrations IC25 and IC10) was added. The cell plates were gently agitated, and were then placed in an incubator at 37 °C for further culture.
(§9) On day 3, to the combination therapy wells was added 10 μL of a 20-fold test concentration of the compound (cytarabine or daunorubicin) (20-fold concentration of each of the three concentrations IC50, IC25, and ICs), and to the monotherapy wells was added 10 μL of a culture medium containing 2% DMSO. The cell plates were gently agitated, and were then placed in an incubator at 37 °C for further 72 h.
(§10) After incubation, a reagent prepared according to the instructions for the CellTiter-Glo Reagent was added (at 50 μL/well). The cell plates were agitated thoroughly and were then incubated at room temperature in the dark for 10 minutes.
(§11) The cell plate was placed in a plate reader for analysis to detect chemiluminescence and record the data.
(§12) The readings in each well should be converted into cell viability, which was calculated by the formula as described in section 1.1.
(§13) The final viability percentages under different conditions were plotted into column charts.

MOLT-4 cells [10] = assay: as above; format: cell-based, human
Experimental: as §1, §8, §9, §10, §11, §12, §13

SUP-T1 cells [11] = assay: as above; format: cell-based, human; details: 0.13 nM and 1 nM AST-3424
Experimental: as §1, §8, §9, §10, §11, §12, §13

PF-382 cells [12] = assay: as above; format: cell-based, human; details: 0.64 and 2.5 nM AST-3424
Experimental: as §1, §8, §9, §10, §11, §12, §13

CCRF-CEM cells [13] = assay: as above; format: cell-based, human; details: 0.1 nM and 1 nM AST-3424
Experimental: as §1, §8, §9, §10, §11, §12, §13

[14] = Clinical plasma concentration (dose comparison and conversion); format: in vivo
From the text: Both daunorubicin and cytarabine are drugs used in clinical practice to treat leukemia or other tumors.

[15] = cited from earlier work
[16] = test system: acute lymphoblastic leukemia; details: cited from earlier work
[17] = test system: neuroblastoma and rhabdomyosarcoma; details: cited from earlier work
[18] = experiments that were conducted previously, read-out: IC50 (superscript 2)
[19] = monotherapy, 72 hours, read-out: IC50

IC50 (Jurkat, Clone E6-1 cells [1]; [18]): 24 nM
IC50 (Jurkat, Clone E6-1 cells [1]; [19]): 4620 nM
IC50 (MOLT-4 cells [2]; [18]): 10 nM
IC50 (MOLT-4 cells [2]; [19]): 8.04 nM
IC50 (CCRF-CEM cells [5]; [18]): 14.9 nM
IC50 (CCRF-CEM cells [5]; [19]): 3.68 nM
Structure (SMILES): C[C@H](OP(=O)(N1CC1)N1CC1)c1ccc([N+](=O)[O-])c(Oc2cccc(C(=O)N(C)C)c2)c1 [AST-3424]
effect on TGF-β signaling pathway / proliferation (TGF-β signaling pathway): could reduce the proliferation effect by inhibiting the TGF-β signaling pathway
inhibitory effects (HepG2): excellent inhibitory effects
IC50 (SUP-T1 cells [3]; [18]): 3.7 nM
IC50 (SUP-T1 cells [3]; [19]): 2.47 nM
IC50 (PF-382 cells [4]; [18]): 3 nM
IC50 (PF-382 cells [4]; [19]): 4.09 nM
inhibitory effects (PLC/PRF/5): excellent inhibitory effects
migration and invasion of tumor cells (tumor cells): could inhibit the migration and invasion of tumor cells
cell cycle block (liver cancer cells [6]): could block the cells in the S phase
toxicity to cancer cells (cancer cells; AST-3424 itself (prodrug)): low toxicity to cancer cells
dependence of potency on AKR1C3 expression level (cancer cells; animal models and in vitro pharmacological experiments): dependent on the level of AKR1C3 expression; also recorded: positively correlated with AKR1C3 expression levels
apoptosis induction (liver cancer cells [7]): may induce apoptosis by upregulating Bax and Caspase3 proteins and downregulating the PARP protein
in vitro cytotoxicity compared with daunorubicin and cytarabine ([8]; four cell lines except Jurkat, Clone E6-1): superior to that of daunorubicin and cytarabine
inhibitory effects on cell proliferation [8]: good inhibitory effects
effect on proliferation, AST-3424 monotherapy (Jurkat, Clone E6-1 cells [9]): no significant effect
effect on proliferation, AST-3424 monotherapy (MOLT-4 cells [10]; 3.2 nM and 6.4 nM AST-3424): no significant effect
effect on proliferation, AST-3424 monotherapy (SUP-T1 cells [11]): no effect
effect on proliferation, AST-3424 monotherapy (PF-382 cells [12]): no significant effect
effect on proliferation, AST-3424 monotherapy (CCRF-CEM cells [13]): no effect

concentration ([14]; 1.8-3 g/m^2, administration with 12 times, converted from steady concentration, read-out: Molar concentration after conversion (steady concentration)): 32 to 97 µM
IC50 (Jurkat, Clone E6-1 cells [1]; [19]): 100 nM
IC50 (MOLT-4 cells [2]; [19]): 120 nM
IC50 (CCRF-CEM cells [5]; [19]): 82.2 nM
Structure (SMILES): Nc1ccn([C@@H]2O[C@H](CO)[C@@H](O)[C@@H]2O)c(=O)n1 [Cytarabine, cytarabine, reference compound]
IC50 (SUP-T1 cells [3]; [19]): 856 nM
IC50 (PF-382 cells [4]; [19]): 26.4 nM
Steady plasma concentration ([15]; 1.8-3 g/m^2, administration with 12 times, steady concentration): 8 to 24 µg/mL
inhibitory effects on cell proliferation [8]: good inhibitory effects

IC50 (Jurkat, Clone E6-1 cells [1]; [19]): 41 nM
IC50 (MOLT-4 cells [2]; [19]): 24.2 nM
IC50 (CCRF-CEM cells [5]; [19]): 30.7 nM
Structure (SMILES): COc1cccc2c1C(=O)c1c(O)c3c(c(O)c1C2=O)C[C@@](O)(C(C)=O)C[C@@H]3O[C@H]1C[C@H](N)[C@H](O)[C@H](C)O1 [Daunorubicin hydrochloride, daunorubicin hydrochloride, reference compound]
IC50 (SUP-T1 cells [3]; [19]): 30.6 nM
IC50 (PF-382 cells [4]; [19]): 14.2 nM

Cmax ([14]; human, plasma, 44 mg/m^2, administration on day 1, 3, 5, converted from Cmax, read-out: Molar concentration after conversion (Cmax)): 49 µM
Structure (SMILES): COc1cccc2c1C(=O)c1c(O)c3c(c(O)c1C2=O)C[C@@](O)(C(C)=O)C[C@@H]3O[C@H]1C[C@H](N)[C@H](O)[C@H](C)O1 [daunorubicin]
remission rate ([16]; acute lymphoblastic leukemia): high remission rate
side effects ([16]; clinical use): severe side effects
Plasma Cmax ([15]; 44 mg/m^2, administration on day 1, 3, 5, Cmax): 26000 ng/mL
therapeutic effects [17]: excellent therapeutic effects
inhibitory effects on cell proliferation [8]: good inhibitory effects
potency on cell proliferation, daunorubicin (MOLT-4 cells [10]; 40 nM daunorubicin): very significant potency
